Reference: patent US5599791A, “Amides of antibiotic GE 2270 factors” (Gruppo Lepetit SPA, priority 1991, dated 1997)

Tests used:
[1] = tested on: Esch. coli L47 SKF 12140; test: MIC, microbroth dilution; type: cell-based, Escherichia coli; settings: inocula 10^4 to 10^5 CFU/ml, Iso-Sensitest broth, 18-24 h, 37° C.
Procedure: (§1) MIC for Propionibacterium aches, and Bacteroides fragilis are determined by agar dilution (inocula 10^4 /10^5 CFU/spot). MIC for other organisms are determined by microbroth dilution (inocula 10^4 to 10^5 CFU/ml). Incubation times are 18-24 h, except for Haemophilus influenzae, P. acnes, B. fragilis (48 h). All organisms are incubated at 37° C.; H. influenzae is incubated in a 5% CO2 atmosphere, anaerobes in an anaerobic gas mixture. Media used are: Iso-Sensitest broth (Oxoid) (Staphylococci, Streptococcus faecalis, Escherichia coli, Proteus vulgaris; brain heart infusion broth (Difco)+1% Supplement C (Difco) (H. influenzae); The minimal inhibitory concentrations (MIC, microgram/ml) for some microorganisms are reported below in Table VII.

[2] = tested on: Strep. faecalis L149 ATCC 7080; test: MIC, microbroth dilution; type: cell-based, Streptococcus faecalis; settings: inocula 10^4 to 10^5 CFU/ml, Iso-Sensitest broth, 18-24 h, 37° C.
Procedure: as §1

[3] = tested on: Bact. fragilis L1010 ATCC 23745; test: MIC, agar dilution; type: cell-based, Bacteroides fragilis; settings: inocula 10^4 /10^5 CFU/spot, 48 h, 37° C., anaerobic gas mixture
Procedure: as §1

[4] = tested on: Prop. acnes L1014 ATCC 6919; test: MIC, agar dilution; type: cell-based, P. acnes; settings: inocula 10^4 /10^5 CFU/spot, 48 h, 37° C., anaerobic gas mixture
Procedure: as §1

[5] = tested on: Strep. pneumoniae L44 UC41; test: MIC, microbroth dilution; type: cell-based; settings: inocula 10^4 to 10^5 CFU/ml, 18-24 h, 37° C.
Procedure: as §1

[6] = tested on: Staph. haemolyticus L602; test: MIC, microbroth dilution; type: cell-based; settings: inocula 10^4 to 10^5 CFU/ml, Iso-Sensitest broth, 18-24 h, 37° C.
Procedure: as §1

[7] = tested on: Staph. epidermidis L147 ATCC 12228; test: MIC, microbroth dilution; type: cell-based; settings: inocula 10^4 to 10^5 CFU/ml, Iso-Sensitest broth, 18-24 h, 37° C.
Procedure: as §1

[8] = tested on: Staph. aureus L165 Tour; test: MIC, microbroth dilution; type: cell-based; settings: inocula 10^4 to 10^5 CFU/ml, Iso-Sensitest broth, 18-24 h, 37° C.
Procedure: as §1

[9] = tested on: Haemophilus Influenzae type B; test: MIC, microbroth dilution; type: cell-based; settings: brain heart infusion broth +1% Supplement C, 48 h, 37° C., 5% CO2
Procedure: as §1

[10] = tested on: Prot. vulgaris ATCC 881; test: MIC, microbroth dilution; type: cell-based, Proteus vulgaris; settings: inocula 10^4 to 10^5 CFU/ml, Iso-Sensitest broth, 18-24 h, 37° C.
Procedure: as §1

Compound	MIC [1] [microgram/ml]	MIC [2] [microgram/ml]	MIC [3] [microgram/ml]	MIC [4] [microgram/ml]	MIC [5] [microgram/ml]	MIC [7]	MIC [8]	MIC [9] [microgram/ml]	MIC [10] [microgram/ml]	MIC [6] [microgram/ml]
CNC(=O)CC1NC(=O)c2nc(sc2COC)C(C(C)C)NC(=O)c2csc(n2)-c2ccc(-c3nc(C(=O)NC(CC(C)C)C(=O)O)cs3)nc2-c2csc(n2)-c2csc(n2)C(C(O)c2ccccc2)NC(=O)CNC(=O)c2nc1sc2C (stereo not shown) [Compound 6]	> 128	< 0.13	> 128	< 0.13	2	1 microgram/ml	< 0.13 microgram/ml	32	> 128	1
CNC(=O)CC1NC(=O)c2nc(sc2COC)C(C(C)C)NC(=O)c2csc(n2)-c2ccc(-c3nc(C(=O)NCCCCCCCC(=O)O)cs3)nc2-c2csc(n2)-c2csc(n2)C(C(O)c2ccccc2)NC(=O)CNC(=O)c2nc1sc2C (stereo not shown) [Compound 20]	> 128	< 0.13	> 128	0.03	2	0.25 microgram/ml	0.25 microgram/ml	> 128	> 128	0.25
CNC(=O)CC1NC(=O)c2nc(sc2CO)C(C(C)C)NC(=O)c2csc(n2)-c2ccc(-c3nc(C(=O)NCCCCCC(=O)O)cs3)nc2-c2csc(n2)-c2csc(n2)C(C(O)c2ccccc2)NC(=O)CNC(=O)c2nc1sc2C (stereo not shown) [Compound 44]	> 128	0.06	> 128	0.016	1	0.5 microgram/ml	0.13 microgram/ml	> 128	> 128	1
CNC(=O)CC1NC(=O)c2nc(sc2COC)C(C(C)C)NC(=O)c2csc(n2)-c2ccc(-c3nc(C(=O)NCCOCCC(=O)O)cs3)nc2-c2csc(n2)-c2csc(n2)C(C(O)c2ccccc2)NC(=O)CNC(=O)c2nc1sc2C (stereo not shown) [Compound 41]	> 128	≤ 0.13	4	≤ 0.13	2	0.5 microgram/ml	0.25 microgram/ml	1	> 128	1
CNC(=O)CC1NC(=O)c2nc(sc2COC)C(C(C)C)NC(=O)c2csc(n2)-c2ccc(-c3nc(C(=O)NCC=O)cs3)nc2-c2csc(n2)-c2csc(n2)C(C(O)c2ccccc2)NC(=O)CNC(=O)c2nc1sc2C (stereo not shown) [Compound 37]	> 128	0.06	> 128	0.004	> 128	0.06 microgram/ml	0.03 microgram/ml	> 128	> 128	0.13
CNC(=O)CC1NC(=O)c2nc(sc2COC)C(C(C)C)NC(=O)c2csc(n2)-c2ccc(-c3nc(C(N)=O)cs3)nc2-c2csc(n2)-c2csc(n2)C(C(O)c2ccccc2)NC(=O)CNC(=O)c2nc1sc2C (stereo not shown) [Compound 35]	> 128	0.06	> 128	0.004	> 128	0.13 microgram/ml	0.13 microgram/ml	> 128	> 128	0.5
CNC(=O)CC1NC(=O)c2nc(sc2COC)C(C(C)C)NC(=O)c2csc(n2)-c2ccc(-c3nc(C(=O)NCCCCCC(=O)O)cs3)nc2-c2csc(n2)-c2csc(n2)C(C(O)c2ccccc2)NC(=O)CNC(=O)c2nc1sc2CO (stereo not shown) [Compound 42]	> 128	0.13	> 128	0.016	1	0,13 microgram/ml	0,13 microgram/ml	4	> 128	0.5
CNC(=O)CC1NC(=O)c2nc(sc2COC)C(C(C)C)NC(=O)c2csc(n2)-c2ccc(-c3nc(C(=O)NCC(=O)N4CCCC4C(N)=O)cs3)nc2-c2csc(n2)-c2csc(n2)C(C(O)c2ccccc2)NC(=O)CNC(=O)c2nc1sc2C (stereo not shown) [Compound 14]	> 128	0.06	> 128	0.03	> 128	0.13 microgram/ml	0.06 microgram/ml	> 128	> 128	0.25

Further lines, with some results ahead:

MIC [1] [microgram/ml]	MIC [2] [microgram/ml]	MIC [3] [microgram/ml]	MIC [4] [microgram/ml]	MIC [5] [microgram/ml]	MIC [7]	MIC [8]	MIC [9] [microgram/ml]	MIC [10] [microgram/ml]	Compound	MIC [6] [microgram/ml]
> 128	0.06	> 128	0.06	> 128	0.25 microgram/ml	0.13 microgram/ml	> 128	> 128	CNC(=O)CC1NC(=O)c2nc(sc2COC)C(C(C)C)NC(=O)c2csc(n2)-c2ccc(-c3nc(C(=O)NC(CCCN)C(=O)O)cs3)nc2-c2csc(n2)-c2csc(n2)C(C(O)c2ccccc2)NC(=O)CNC(=O)c2nc1sc2C.O=C(O)C(F)(F)F (stereo not shown) [Compound 2]	16
> 128	0.13	> 128	0.06	4	0.13 microgram/ml	0.13 microgram/ml	> 128	> 128	CNC(=O)CC1NC(=O)c2nc(sc2COC)C(C(C)C)NC(=O)c2csc(n2)-c2ccc(-c3nc(C(=O)NCCCN)cs3)nc2-c2csc(n2)-c2csc(n2)C(C(O)c2ccccc2)NC(=O)CNC(=O)c2nc1sc2C.O=C(O)C(F)(F)F (stereo not shown) [Compound 36]	0.13
> 128	≤ 0.13	8	≤ 0.13	4	0.25 microgram/ml	0.13 microgram/ml	1	> 128	CNC(=O)CC1NC(=O)c2nc(sc2COC)C(C(C)C)NC(=O)c2csc(n2)-c2ccc(-c3nc(C(=O)NCCSCCC(=O)O)cs3)nc2-c2csc(n2)-c2csc(n2)C(C(O)c2ccccc2)NC(=O)CNC(=O)c2nc1sc2C (stereo not shown) [Compound 39]	2
> 128	0.13	2	0.016	1	0.25 microgram/ml	0.25 microgram/ml	2	> 128	CNC(=O)CC1NC(=O)c2nc(sc2COC)C(C(C)C)NC(=O)c2csc(n2)-c2ccc(-c3nc(C(=O)NCCCC(=O)O)cs3)nc2-c2csc(n2)-c2csc(n2)C(C(O)c2ccccc2)NC(=O)CNC(=O)c2nc1sc2C (stereo not shown) [Compound 18]	1
> 128	0.25	8	< 0.13	8	1 microgram/ml	0.5 microgram/ml	8	> 128	CNC(=O)CC1NC(=O)c2nc(sc2COC)C(C(C)C)NC(=O)c2csc(n2)-c2ccc(-c3nc(C(=O)NCC(=O)O)cs3)nc2-c2csc(n2)-c2csc(n2)C(C(O)c2ccccc2)NC(=O)CNC(=O)c2nc1sc2C (stereo not shown) [Compound 1]	4
> 128	≤ 0.13	4	–	1	0.25 microgram/ml	0.25 microgram/ml	1	> 128	CNC(=O)CC1NC(=O)c2nc(sc2COC)C(C(C)C)NC(=O)c2csc(n2)-c2ccc(-c3nc(C(=O)NCCCC=CC(=O)O)cs3)nc2-c2csc(n2)-c2csc(n2)C(C(O)c2ccccc2)NC(=O)CNC(=O)c2nc1sc2C (stereo not shown) [Compound 40]	1
